Reference: US10227349B2, “Pyrazolo[1,5-a]pyrimidine compound” (Eisai R&D Management Co., Ltd., priority 2016, dated 2019)

Tests used:
PAR2 [1] = target: T1, PAR2 (Homo sapiens, UniProt P55085); assay: Intracellular calcium concentration measurement (trypsin-induced calcium elevation, FDSS6000); format: cell-based; conditions: HEK293 cells, trypsin 5 U/mL as agonist, test compound added 30 min before measurement; read-out: Inhibitory activity on intracellular calcium elevation (IC50 (nM))
T1 construct: Human embryonic kidney cell line HEK293 cells cultured using DMEM culture medium; endogenous in cells; host or cells: HEK293
T1 sequence (P55085 26-397): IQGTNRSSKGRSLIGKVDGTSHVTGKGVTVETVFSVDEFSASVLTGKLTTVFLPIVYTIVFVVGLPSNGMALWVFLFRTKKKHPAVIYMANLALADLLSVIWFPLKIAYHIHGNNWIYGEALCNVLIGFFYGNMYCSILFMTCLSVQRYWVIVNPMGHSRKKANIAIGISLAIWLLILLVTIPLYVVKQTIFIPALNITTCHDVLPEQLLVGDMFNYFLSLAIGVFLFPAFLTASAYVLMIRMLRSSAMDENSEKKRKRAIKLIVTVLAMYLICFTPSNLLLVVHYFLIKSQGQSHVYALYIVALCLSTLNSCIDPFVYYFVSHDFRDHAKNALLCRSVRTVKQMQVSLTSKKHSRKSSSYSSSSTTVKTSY
Text: In the present specification, examples of the measurement method for the PAR2 inhibitory activity include measurement method for a concentration elevation of intracellular calcium; measurement method for a production increase of intracellular inositol trisphosphate; measurement method for an increase in intracellular protein phosphorylation by protein kinase C and MAP kinase; and measurement method for a production amount or a release amount of inflammation-related physiologically active substances such as cytokine, chemokine, prostaglandin and nitric monoxide. Examples of the measurement method for an elevation of intracellular calcium concentration include a method wherein a calcium-binding fluorescent probe is allowed to be incorporated in advance into a cultured cell line or an animal-derived isolated cell having PAR2, or a cell in which PAR2 is artificially expressed, a protease having the PAR2 activity function such as trypsin or a PAR2 agonist (synthetic peptides such as SLIGKV-NH2 (SEQ ID NO: 1) and SLIGRL-NH2 (SEQ ID NO: 2) is added to activate PAR2 whereby fluctuating intracellular calcium concentrations are detected as changes in the fluorescent signal. Alternatively, it is also possible to measure an intracellular calcium concentration by determining the quantity of a fluorescence intensity produced in proportion to the calcium concentration using a calcium-binding luminescent protein overexpressing cell line such as Aequorin. Specifically, examples include the methods described in Test Examples of the present specification.
Human embryonic kidney cell line HEK293 cells cultured using DMEM culture medium (Invitrogen) with 3% fetal bovine serum (3% FBS)-added was prepared to have a concentration of 2×10^5 cells/mL, and plated in a type I collagen-coated 384-well black plate (clear bottom) (Greiner) so as to be 25 μL/well and cultured in a CO2 incubator overnight. FLIPR Calcium Assay Kit (Molecular Devices) prepared with Hanks-20 mM Hepes buffer (pH 7.4) was added to the cells so as to be 25 μL/well and cultured in the CO2 incubator for 1 hour. Trypsin (SIGMA-ALDRICH, catalog number: T8816, Enzyme Commission Number 3.4.21.4) prepared so as to be 5 U/mL as final concentration (BAEE unit) with Hanks-20 mM Hepes buffer (pH 7.4) was added to a 384-well deep well polypropylene plate (Greiner) to be an agonist reagent plate. Thirty minutes before the measurement using FDSS6000 (Hamamatsu Photonics K.K.), a test compound prepared with Hanks-20 mM Hepes buffer (pH 7.4) was added to the cell so as to be 8 μL/well. The cell plate to which the test compound was added and the reagent plate were set on FDSS6000, 22 μL/well of the agonist solution was added from the reagent plate, and the change in intracellular calcium concentration was measured with a CCD camera. The measurement was carried out at 37° C. for 120 seconds and the addition of reagent from the reagent plate to the cell plate was carried out using a built-in 384-well automatic dispenser of FDSS6000.
Note that Reference Example 1 in Table 3 is the compound represented by formula (XIX) synthesized in the above Reference Example 1 (hereinafter, also referred to as Compound (XIX)). Additionally, the “Comparative Compound” in Table 3 is the compound described in Patent Literature 4 represented by the following formula (XX) (I-343; hereinafter, also referred to as Compound (XX)).

[2] = system: OXA-induced enteritis in BALB/c male mice; assay: Model mouse for enteritis (OXA-induced, bowel length); format: in vivo; conditions: po, 48 h, 0.1 mg/mL solution 10 mL/kg orally twice (1 hour before and day after OXA induction), length of colon and rectum two days after induction, read-out: Inhibitory activity on bowel shortening (%)
Protocol: Generally, the bowel length is known to be shorter during enteritis (Maxwell, J. R. et al. Curr. Protoc. Pharmacol. Chapter 5: Unit 5.58, 2009). The bowel length in an enteritis model was measured to evaluate the effect of the test compound.
The test compound was added to a 0.5% carboxymethyl cellulose solution so as to have a final concentration of 0.1 mg/mL, thereby preparing an administration solution containing the test compound. Hapten used was 4-ethoxymethylene-2-phenyloxazol-5-one (OXA, SIGMA-ALDRICH).
One hundred (100) μL of a solution of OXA diluted to 0.3% with ethanol was applied to the shaved abdominal region of BALB/c male mice (Charles River), 6-10 weeks of age, to create the sensitization. Five days after the sensitization, OXA was intrarectally administered to induce an enteritis reaction. More specifically, a syringe equipped with a sonde for oral administration was inserted into the anus of the mouse anesthetized by the inhalation of isoflurane at a concentration of 4-5% and 50 μL of the OXA solution adjusted to 1% with a solvent of 50% ethanol/50% distilled water was administered into the rectum.
One hour before and on the day following the induction of enteritis, the administration solution containing the test compound (10 mL/kg) was orally administered twice in total to the mice. Two days after the induction of enteritis, the mice were euthanized by cervical dislocation and subsequently the cecum to the anus was collected to measure the combined length of the colon and the rectum using a ruler, thereby evaluating the action of the test compound.
Note that Reference Example 1 in Table 6 is Compound (XIX).

PAR2 [3] = target: T2, PAR2 (Mus musculus, UniProt P55086); assay: Measurement of PAR2 agonist (SLIGRL-NH2)-induced salivation in mouse; format: in vivo; conditions: C57BL/6J male mice, 0.3 mg/mL solution 10 mL/kg orally, 60 min before SLIGRL-NH2 i.p., saliva collected 10 min
T2 construct: orally administered to C57BL/6J male mice (Charles River), 6-10 weeks of age; tissue Charles River; host or cells: Living C57BL/6J male mice (in vivo; saliva secretion)
T2 sequence (P55086 26-399): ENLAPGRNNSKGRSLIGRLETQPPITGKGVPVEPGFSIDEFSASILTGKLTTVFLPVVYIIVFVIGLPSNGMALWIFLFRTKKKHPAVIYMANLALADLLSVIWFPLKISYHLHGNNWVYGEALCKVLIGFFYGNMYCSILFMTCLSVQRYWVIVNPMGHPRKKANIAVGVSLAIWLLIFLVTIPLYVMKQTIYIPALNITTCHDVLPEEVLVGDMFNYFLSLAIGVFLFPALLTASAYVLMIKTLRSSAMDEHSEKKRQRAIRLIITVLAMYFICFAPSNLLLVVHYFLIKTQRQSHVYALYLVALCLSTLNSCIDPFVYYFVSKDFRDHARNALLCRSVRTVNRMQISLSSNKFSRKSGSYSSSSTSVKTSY
Protocol: The test compound was added to a 0.5% carboxymethyl cellulose solution to which 2% DMSO was added, so as to have the final concentration of 0.3 mg/mL, thereby preparing an administration solution containing the test compound. The administration solution containing the test compound (10 mL/kg) was orally administered to C57BL/6J male mice (Charles River), 6-10 weeks of age, using an oral sonde and a syringe. Forty-five minutes after the administration of the test compound, 10 mL/kg of a 20% (w/v) urethane solution was intraperitoneal administered to the mice which were then anesthetized. Sixty minutes after the administration of the test compound, 10 mL/kg of a 0.1 mg/mL SLIGRL-NH2 (SEQ ID NO: 2) solution was intraperitoneally administered as the PAR2 agonist and a cotton ball was immediately placed in the oral cavity of the mouse to collect the saliva. Ten minutes after the administration of the PAR2 agonist, the cotton ball was removed and weighed to measure the amount of saliva secreted.
Note that Reference Example 1 in Table 4 is Compound (XIX). Additionally, Comparative Compound in Table 4 is Compound (XX).

[4] = system: DNFB-induced dermatitis in BALB/c male mice; assay: Mouse dermatitis model (DNFB-induced auricle swelling); format: in vivo; conditions: 0.3 mg/mL solution 10 mL/kg orally 8 hours after DNFB induction, auricle thickness on following day
Protocol: The test compound was added to a 0.5% carboxymethyl cellulose solution so as to have the final concentration of 0.3 mg/mL, thereby preparing an administration solution containing the test compound. Hapten used was 2,4-dinitrofluorobenzene (DNFB, Wako Pure Chemical Industries).
Twenty-five (25) μL of a solution of DNFB diluted to 0.4% with a mixed solvent of acetone and an olive oil in a volume ratio of 2:1 was applied twice to the shaved abdominal region of BALB/c male mice (Charles River), 6-10 weeks of age, over a period of 2 days to create the sensitization. Four days after the sensitization, on the first day, 20 μL of a solution of DNFB diluted to 0.2% with a mixed solvent of acetone and an olive oil in a volume ratio of 2:1 was applied to the right auricle of the mouse to induce dermatitis. Eight hours after the induction of dermatitis, the administration solution containing the test compound (10 mL/kg) was orally administered to the mouse. On the day following the induction of dermatitis, the right auricle thickness of the mouse was measured using a thickness gauge to evaluate the action of the test compound.
Note that Reference Example 1 in Table 5 is Compound (XIX).

## CN(c1c(F)cccc1Cl)c1cc(-c2cc(F)c(F)c(F)c2)nc2cc(C(=O)N3CC[C@@H](CC(=O)O)[C@@H](F)C3)nn12 (relative stereo) [Example 13, 2-((3R*,4S*)-1-(7-((2-chloro-6-fluorophenyl)(methyl)amino)-5-(3,4,5-trifluorophenyl)pyrazolo[1,5-a]pyrimidine-2-carbonyl)-3-fluoropiperidin-4-yl)acetic acid]
PAR2 [1]
  IC50: 4 nM
[2]
  inhibition in vivo at 100 µg/mL, 1 mg/kg: 62.2%
PAR2 [3]
  Inhibitory activity on the PAR2-dependent saliva secretion (%): 95.0%

## Cc1cccc(C)c1N(C)c1cc(-c2cc(F)c(F)c(F)c2)nc2cc(C(=O)N3CC[C@@H](CC(=O)O)[C@@H](F)C3)nn12 (relative stereo) [Example 1, 2-((3R*,4S*)-1-(7-((2,6-dimethylphenyl)(methyl)amino)-5-(3,4,5-trifluorophenyl)pyrazolo[1,5-a]pyrimidine-2-carbonyl)-3-fluoropiperidin-4-yl)acetic acid]
PAR2 [1]
  IC50: 2.57 nM
[2]
  inhibition in vivo at 100 µg/mL, 1 mg/kg: 60.4%
PAR2 [3]
  Inhibitory activity on the PAR2-dependent saliva secretion (%): 91.5%

## CC(C)CN(c1cc(-c2cc(F)c(F)c(F)c2)nc2cc(C(=O)N3C[C@@H]4[C@@H](CC(=O)O)[C@@H]4C3)nn12)[C@@H](C)c1ccccc1 [Example 16, 2-((1α,5α,6α)-3-(7-(isobutyl((S)-1-phenylethyl)amino)-5-(3,4,5-trifluorophenyl)pyrazolo[1,5-a]pyrimidine-2-carbonyl)-3-azabicyclo[3.1.0]hexan-6-yl)acetic acid]
PAR2 [1]
  IC50: 26.3 nM
[2]
  inhibition in vivo at 100 µg/mL, 1 mg/kg: 74.5%
PAR2 [3]
  Inhibitory activity on the PAR2-dependent saliva secretion (%): 98.2%

## COc1cccc(C)c1N(C)c1cc(-c2cc(F)c(F)c(F)c2)nc2cc(C(=O)N3CC[C@@H](CC(=O)O)[C@@H](F)C3)nn12 (relative stereo) [Example 5, 2-((3R*,4S*)-3-fluoro-1-(7-((2-methoxy-6-methylphenyl)(methyl)amino)-5-(3,4,5-trifluorophenyl)pyrazolo[1,5-a]pyrimidine-2-carbonyl)piperidin-4-yl)acetic acid]
PAR2 [1]
  IC50: 2.45 nM
[2]
  inhibition in vivo at 100 µg/mL, 1 mg/kg: 106%
PAR2 [3]
  Inhibitory activity on the PAR2-dependent saliva secretion (%): 94.5%

## COc1cccc(C)c1N(C)c1cc(-c2cc(F)c(F)c(F)c2)nc2cc(C(=O)N3CC[C@@H](CC(=O)O)[C@@H](OC)C3)nn12 (relative stereo) [Example 6, 2-((3R*,4S*)-3-methoxy-1-(7-((2-methoxy-6-methylphenyl)(methyl)amino)-5-(3,4,5-trifluorophenyl)pyrazolo[1,5-a]pyrimidine-2-carbonyl)piperidin-4-yl)acetic acid]
PAR2 [1]
  IC50: 2.79 nM
[2]
  inhibition in vivo at 100 µg/mL, 1 mg/kg: 79.6%
PAR2 [3]
  Inhibitory activity on the PAR2-dependent saliva secretion (%): 97.0%

## CCCN(c1cc(-c2cc(F)c(Cl)c(F)c2)nc2cc(C(=O)N3C[C@@H]4[C@@H](CC(=O)O)[C@@H]4C3)nn12)C(C)C [Example 15, 2-((1α,5α,6α)-3-(5-(4-chloro-3,5-difluorophenyl)-7-(isopropyl(propyl)amino)pyrazolo[1,5-a]pyrimidine-2-carbonyl)-3-azabicyclo[3.1.0]hexan-6-yl)acetic acid]
PAR2 [1]
  IC50: 12.8 nM
[4]
  Inhibitory activity on auricle swelling (%): 17.4%

## COc1cccc(F)c1N(C)c1cc(-c2cc(F)c(F)c(F)c2)nc2cc(C(=O)N(C)[C@H](C)CC(=O)O)nn12 [Example 7, (R)-3-(7-((2-fluoro-6-methoxyphenyl)(methyl)amino)-N-methyl-5-(3,4,5-trifluorophenyl)pyrazolo[1,5-a]pyrimidine-2-carboxamide)butanoic acid]
PAR2 [1]
  IC50: 1.74 nM
[4]
  Inhibitory activity on auricle swelling (%): 61.6%
PAR2 [3]
  Inhibitory activity on the PAR2-dependent saliva secretion (%): 96.0%
